pIC50: −log10 of the molar value.
The compounds below were run against H1047R PIK3CA enzyme (Homo sapiens, UniProt P42336, H1047R) (assay: ADP-Glo Biochemical PIK3CA Kinase Assay).
Chain of H1047R PIK3CA enzyme (P42336 whole entry H1047R): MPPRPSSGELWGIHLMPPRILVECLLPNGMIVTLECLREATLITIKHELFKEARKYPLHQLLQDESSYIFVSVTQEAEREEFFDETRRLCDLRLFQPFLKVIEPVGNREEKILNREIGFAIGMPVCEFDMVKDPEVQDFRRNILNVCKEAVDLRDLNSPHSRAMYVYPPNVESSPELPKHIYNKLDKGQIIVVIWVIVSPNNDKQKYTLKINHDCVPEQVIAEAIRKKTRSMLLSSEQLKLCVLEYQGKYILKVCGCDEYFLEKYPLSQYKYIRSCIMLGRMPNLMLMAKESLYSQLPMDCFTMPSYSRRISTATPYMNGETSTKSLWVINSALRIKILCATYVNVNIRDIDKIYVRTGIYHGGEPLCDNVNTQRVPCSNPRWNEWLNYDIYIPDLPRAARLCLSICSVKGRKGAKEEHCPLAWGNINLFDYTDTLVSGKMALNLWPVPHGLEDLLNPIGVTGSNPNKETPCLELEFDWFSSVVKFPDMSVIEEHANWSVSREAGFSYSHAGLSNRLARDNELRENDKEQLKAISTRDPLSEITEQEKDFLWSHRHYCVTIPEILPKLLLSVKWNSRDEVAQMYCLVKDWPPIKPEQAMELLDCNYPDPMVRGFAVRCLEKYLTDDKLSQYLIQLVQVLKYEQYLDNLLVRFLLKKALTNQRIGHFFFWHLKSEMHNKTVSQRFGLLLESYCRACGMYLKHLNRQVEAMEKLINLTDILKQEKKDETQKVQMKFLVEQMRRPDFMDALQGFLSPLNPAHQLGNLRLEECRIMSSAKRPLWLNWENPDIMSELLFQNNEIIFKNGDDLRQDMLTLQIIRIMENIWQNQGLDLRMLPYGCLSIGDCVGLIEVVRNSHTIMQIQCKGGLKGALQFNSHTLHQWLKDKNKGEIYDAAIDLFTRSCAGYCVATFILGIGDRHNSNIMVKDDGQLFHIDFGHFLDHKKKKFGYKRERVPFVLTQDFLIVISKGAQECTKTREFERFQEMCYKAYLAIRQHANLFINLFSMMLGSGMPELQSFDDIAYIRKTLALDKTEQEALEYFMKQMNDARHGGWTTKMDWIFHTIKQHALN
Chain of H1047R PIK3CA enzyme (P27986 whole entry partner): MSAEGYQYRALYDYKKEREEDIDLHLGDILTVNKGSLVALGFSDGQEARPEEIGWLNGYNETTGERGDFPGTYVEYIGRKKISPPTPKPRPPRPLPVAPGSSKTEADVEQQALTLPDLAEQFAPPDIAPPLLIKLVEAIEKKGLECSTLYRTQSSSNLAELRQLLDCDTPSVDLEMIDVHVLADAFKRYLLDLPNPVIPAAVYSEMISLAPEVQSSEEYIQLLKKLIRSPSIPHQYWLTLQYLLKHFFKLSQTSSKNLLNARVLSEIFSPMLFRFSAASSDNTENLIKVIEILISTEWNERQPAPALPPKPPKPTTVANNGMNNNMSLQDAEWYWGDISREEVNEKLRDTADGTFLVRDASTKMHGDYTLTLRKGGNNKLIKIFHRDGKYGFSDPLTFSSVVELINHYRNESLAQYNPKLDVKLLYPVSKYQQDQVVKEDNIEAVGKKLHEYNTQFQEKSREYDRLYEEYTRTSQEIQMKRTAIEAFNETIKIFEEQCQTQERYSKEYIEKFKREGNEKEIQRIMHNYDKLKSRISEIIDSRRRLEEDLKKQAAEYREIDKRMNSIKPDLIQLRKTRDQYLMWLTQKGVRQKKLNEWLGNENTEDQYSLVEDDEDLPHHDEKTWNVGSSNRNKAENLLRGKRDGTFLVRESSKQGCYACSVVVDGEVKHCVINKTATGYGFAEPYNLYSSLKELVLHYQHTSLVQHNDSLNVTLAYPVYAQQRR

Q: `O=C1N[C@H](c2cc(F)ccc2Cl)c2c(NC(=O)N3C[C@](O)(C(F)(F)F)c4cc(F)ccc43)cc(-n3ncccc3=O)cc21` (single isomer, unassigned) [Compound I-2535] was tested. Which pIC50 did it give?
A: 5.00 to 6.00

Q: How did the pIC50 turn out when `CNC(=O)c1cc(NC(=O)c2ccccc2)c2c(c1)C(=O)NC2c1cc(F)ccc1Cl` (stereo not shown) [Compound I-1548] was run?
A: 4.00 to 5.00

Q: With `O=C1NC(c2cc(F)ccc2Cl)c2c(NC(=O)c3cc(F)cc4cn[nH]c34)cccc21` (stereo not shown) [Compound I-594] as the compound, how does the pIC50 read?
A: 6.00 to 6.30

Q: How did the pIC50 turn out when `O=C1NC(c2cc(F)ccc2Cl)c2c(NC(=O)N3CC4CCC4(C(F)(F)F)C3)cc(Br)cc21` (stereo not shown) [Compound I-1754] was run?
A: 5.00 to 6.00

Q: With `N#CC1(CNc2cc(NC(=O)c3cc(F)cc(C(F)(F)F)c3)c3c(c2)C(=O)N[C@@H]3c2cc(F)ccc2Cl)CC1` [Compound I-869] as the compound, how does the pIC50 read?
A: 6.30 to 7.00

Q: `O=C(Nc1cc(CNCc2ccccc2)nc2c1C(c1cc(F)ccc1Cl)NC2=O)c1cc(F)cc(C(F)(F)F)c1` (stereo not shown) [Compound I-444] was tested. Which pIC50 did it give?
A: 6.30 to 7.00

Q: `O=C1N[C@H](c2cc(F)ccc2Cl)c2c(NC(=O)N3C[C@H](O)c4ccc(F)cc43)cccc21` (stereo in doubt) [Compound I-2174] was tested. Which pIC50 did it give?
A: 4.00 to 5.00

Q: How did the pIC50 turn out when `CC1(Cc2cc(NC(=O)c3cc(F)cc(C(F)(F)F)c3)c3c(c2)C(=O)NC3c2cc(F)ccc2Cl)COC1` (stereo not shown) [Compound I-710] was run?
A: ≥ 7.00

Q: `CC(C)(O)C12CC(C(=O)Nc3cccc4c3C(c3cc(F)ccc3Cl)NC4=O)(C1)C2` (stereo not shown) [Compound I-2117] was tested. Which pIC50 did it give?
A: 4.00 to 5.00

Q: `O=C1N[C@H](c2cc(F)ccc2Cl)c2c(NC(=O)N3C[C@@](O)(C(F)(F)F)c4cc(F)ccc43)cc(C3COC3)cc21` (single isomer, unassigned) [Compound I-2654] was tested. Which pIC50 did it give?
A: 5.00 to 6.00

Q: How did the pIC50 turn out when `Cc1ccccc1C1NC(=O)c2c(N(C)C)ncc(NC(=O)c3nsc4ccccc34)c21` (stereo not shown) [Compound I-143] was run?
A: 6.30 to 7.00

Q: How did the pIC50 turn out when `O=C(Nc1cc(OCC2CC2)cc2c1C(c1cc(F)ccc1Cl)NC2=O)c1cc(F)cc(C(F)(F)F)c1` (stereo not shown) [Compound I-2134] was run?
A: 6.30 to 7.00

Q: With `O=C1NC(c2cc(F)ccc2Cl)c2c(NC(=O)C3CCCc4ccccc4C3)cccc21` (mixture of isomers) [Compound I-2375] as the compound, how does the pIC50 read?
A: 4.00 to 5.00

Q: With `CCc1cc(C(=O)Nc2cc(Br)cc3c2C(c2ccccc2C)NC3=O)ccc1F` (stereo not shown) [Compound I-640] as the compound, how does the pIC50 read?
A: 5.00 to 6.00

Q: How did the pIC50 turn out when `O=C(Nc1cc(Oc2ccncn2)cc2c1C(c1cc(F)ccc1Cl)NC2=O)c1cc(F)cc(C(F)(F)F)c1` (stereo not shown) [Compound I-1052] was run?
A: 6.30 to 7.00

Q: With `C[C@H](C#N)Cn1cc(-c2cc(NC(=O)N3C[C@H](O)c4cc(F)ccc43)c3c(c2)C(=O)N[C@@H]3c2cc(F)ccc2Cl)cn1` (single isomer, unassigned) [Compound I-2500] as the compound, how does the pIC50 read?
A: 6.30 to 7.00

Q: How did the pIC50 turn out when `Cn1cc(-c2cc(NC(=O)c3cc(F)cc(C(F)(F)F)c3)c3c(n2)C(=O)N[C@H]3c2cc(F)ccc2Cl)ccc1=O` [Compound I-588] was run?
A: ≥ 7.00

Q: With `O=C(Nc1cc(-c2cn3ccncc3n2)cc2c1C(c1cc(F)ccc1Cl)NC2=O)c1cc(F)cc(C(F)(F)F)c1` (stereo not shown) [Compound I-1300] as the compound, how does the pIC50 read?
A: ≥ 7.00

Q: `Cc1ccccc1C1NC(=O)c2cccc(NC(=O)c3noc4ccccc34)c21` (stereo not shown) [Compound I-41] was tested. Which pIC50 did it give?
A: 4.00 to 5.00

Q: `CNS(=O)(=O)Cc1cc(NC(=O)c2cc(F)cc(C(F)(F)F)c2)c2c(c1)C(=O)NC2c1cc(F)ccc1Cl` (stereo not shown) [Compound I-1365] was tested. Which pIC50 did it give?
A: ≥ 7.00

Q: `O=C(Nc1cc(-c2ccc3ncnn3c2)cc2c1[C@@H](c1cc(F)ccc1Cl)NC2=O)c1cc(F)cc(C(F)(F)F)c1` (single isomer, unassigned) [Compound I-943] was tested. Which pIC50 did it give?
A: 6.00 to 6.30

Q: `Cc1ccccc1C1NC(=O)c2cccc(NC(=O)N3CCNC(C(F)(F)F)C3)c21` (racemic) [Compound I-60] was tested. Which pIC50 did it give?
A: 4.00 to 5.00

Q: With `O=C1NC(c2cc(F)ccc2Cl)c2c1cccc2-c1cc2c(Cl)cc(F)cc2[nH]1` (stereo not shown) [Compound I-1317] as the compound, how does the pIC50 read?
A: 6.30 to 7.00

Q: How did the pIC50 turn out when `N#CCC(O)c1cc(NC(=O)c2cc(F)cc(C(F)(F)F)c2)c2c(c1)C(=O)NC2c1cc(F)ccc1Cl` (racemic) [Compound I-1243] was run?
A: ≥ 7.00

Q: How did the pIC50 turn out when `O=C(CC1CC1)Nc1cc(-c2ccc3ncnn3c2)cc2c1C(c1cc(F)ccc1Cl)NC2=O` (stereo not shown) [Compound I-1781] was run?
A: 4.00 to 5.00

Q: How did the pIC50 turn out when `Cc1ccccc1C1NC(=O)c2cccc(NC(=O)c3nsc4ccc(Br)cc34)c21` (stereo not shown) [Compound I-376] was run?
A: 6.00 to 6.30

Q: `O=C(Nc1cc(C2(O)COC2)cc2c1C(c1cc(F)ccc1Cl)NC2=O)c1cc(F)cc(C(F)(F)F)c1` (stereo not shown) [Compound I-1281] was tested. Which pIC50 did it give?
A: ≥ 7.00

Q: With `N#C[C@H]1C[C@@H](Oc2cc(NC(=O)c3cc(F)cc(C(F)(F)F)c3)c3c(c2)C(=O)N[C@@H]3c2cc(F)ccc2Cl)C1` [Compound I-1333] as the compound, how does the pIC50 read?
A: 5.00 to 6.00

Q: With `CCC(N)(CC)c1cc(NC(=O)c2cc(F)cc(C(F)(F)F)c2)c2c(c1)C(=O)NC2c1cc(F)ccc1Cl` (stereo not shown) [Compound I-554] as the compound, how does the pIC50 read?
A: ≥ 7.00

Q: With `O=C(Nc1cccc2c1C1(CCc3ccccc31)NC2=O)c1cc(F)cc(C(F)(F)F)c1` (stereo not shown) [Compound I-188] as the compound, how does the pIC50 read?
A: 4.00 to 5.00

Q: `O=C(Nc1cc(C2CNCCS2(=O)=O)cc2c1C(c1cc(F)ccc1Cl)NC2=O)c1cc(F)cc(C(F)(F)F)c1` (racemic) [Compound I-1255] was tested. Which pIC50 did it give?
A: ≥ 7.00

Q: `O=C(Nc1cc(-c2ccn3ncnc3c2F)cc2c1[C@@H](c1cc(F)ccc1Cl)NC2=O)c1cc(F)cc(C(F)(F)F)c1` [Compound I-1764] was tested. Which pIC50 did it give?
A: 5.00 to 6.00

Q: `O=C1N[C@@H](c2cc(F)ccc2Cl)c2c(NC(=O)[C@H]3CC(C(F)(F)F)C[C@@H](O)C3)cc(Br)cc21` (single isomer, unassigned) [Compound I-2152] was tested. Which pIC50 did it give?
A: 5.00 to 6.00

Q: With `CC(C)n1cc(-c2cc(NC(=O)c3cc(F)cc(C(F)(F)F)c3)c3c(c2)C(=O)NC3c2cc(F)ccc2Cl)ccc1=O` (stereo not shown) [Compound I-699] as the compound, how does the pIC50 read?
A: ≥ 7.00

Q: With `NC1(C(=O)Nc2cc(-c3ccc4ncnn4c3)cc3c2C(c2cc(F)ccc2Cl)NC3=O)CCCC1` (stereo not shown) [Compound I-1812] as the compound, how does the pIC50 read?
A: 4.00 to 5.00

Q: With `O=C(Nc1cc(C2=CN3CCN=C3C=C2)cc2c1[C@@H](c1cc(F)ccc1Cl)NC2=O)c1cc(F)cc(C(F)(F)F)c1` [Compound I-2091] as the compound, how does the pIC50 read?
A: 6.00 to 6.30

Q: `Cc1ccccc1C1NC(=O)c2cccc(NC(=O)N3CC(C)c4ccccc43)c21` (stereo not shown) [Compound I-95] was tested. Which pIC50 did it give?
A: 6.30 to 7.00

Q: With `Cc1ccccc1C1c2c(NC(=O)c3csc4ccccc34)cccc2C(=O)N1C` (stereo not shown) [Compound I-82] as the compound, how does the pIC50 read?
A: 4.00 to 5.00

Q: With `O=C1N[C@@H](c2cc(F)ccc2Cl)c2c(NC(=O)[C@H]3CCC[C@@H](OC(F)(F)F)C3)cccc21` (single isomer, unassigned) [Compound I-2218] as the compound, how does the pIC50 read?
A: 4.00 to 5.00

Q: With `O=C(Nc1cccc2c1C(c1cc(O)ccc1Cl)NC2=O)c1cc(O)cc(C(F)(F)F)c1` (stereo not shown) [Compound I-415] as the compound, how does the pIC50 read?
A: 4.00 to 5.00

Q: `O=C1NC[C@H](c2cc(NC(=O)c3cc(F)cc(C(F)(F)F)c3)c3c(c2)C(=O)N[C@H]3c2cc(F)ccc2Cl)O1` (single isomer, unassigned) [Compound I-1559] was tested. Which pIC50 did it give?
A: ≥ 7.00

Q: With `Cc1ccccc1C1NC(=O)c2c(CNC(=O)C(F)(F)F)ccc(NC(=O)c3csc4ccccc34)c21` (stereo not shown) [Compound I-223] as the compound, how does the pIC50 read?
A: 6.30 to 7.00

Q: How did the pIC50 turn out when `NC(=O)C(C(=O)Nc1cc(-c2ccc3ncnn3c2)cc2c1C(c1cc(F)ccc1Cl)NC2=O)c1ccccc1` (stereo not shown) [Compound I-1787] was run?
A: 5.00 to 6.00

Q: With `O=C1NC(c2cc(F)ccc2Cl)c2c(Nc3cccc4ccccc34)cc(Br)cc21` (stereo not shown) [Compound I-1682] as the compound, how does the pIC50 read?
A: 5.00 to 6.00

Q: With `O=C1NC(c2cc(F)ccc2Cl)c2c(NC(=O)C3CCCc4ccccc43)cc(Br)cc21` (stereo not shown) [Compound I-631] as the compound, how does the pIC50 read?
A: 5.00 to 6.00

Q: With `Cc1ccccc1C1NC(=O)c2cccc(NC(=O)c3nc(C)c4ccc(Cl)cn34)c21` (stereo not shown) [Compound I-285] as the compound, how does the pIC50 read?
A: 4.00 to 5.00

Source: US12581252B2, “Substituted pyrrolo[3,4-b]pyridines as PI3K-α inhibitors” (Relay Therapeutics, Inc., priority 2020, dated 2026)
